Assay [1] in a line: microbe, parasite or virus in culture. The following applies: Mycobacterium tuberculosis, 96 h, read-out: pIC50 (converted).
A short description of assay [2]: microbe, parasite or virus in culture. The following applies: Mycobacterium tuberculosis, 72 h, read-out: pIC50 (converted).
Assay [3] in a line: In vitro enzyme assay to detect hydrolysis of chlorophenol red-beta-D-[…] directly proportional to the number of Toxoplasma stably expressing beta-galactosidase. Format: functional, organism-based, Toxoplasma gondii. The following applies: for IC50: Toxoplasma gondii.
The target in the next assay is Tryptophan--tRNA ligase (Mycobacterium tuberculosis (strain ATCC 25618 / H37Rv), UniProt P9WFT3). As to the kind of experiment: Biochemical assay for Mt-TrpRS. Type of assay: functional.
The target in a further assay is ClpP1P2 (Mycobacterium tuberculosis (strain ATCC 25618 / H37Rv), UniProt P9WPC3+P9WPC5). Description: in vitro assay to detect presence of AMC directly proportional to the activity of ClpP1P2. GHDDI collaboration. Format: functional.
In a further assay the test system is Schistosoma mansoni. Description: High throughput screening of compounds against Schistosoma mansoni motility. The arrangement: dose or concentration left out as unconfirmed. Format: functional.
In the next assay the test system is Plasmodium falciparum. As to the kind of experiment: Calibr Malaria Delayed Death Assay SOP. Type of assay: functional, organism-based. The following applies: for IC50: Plasmodium falciparum.

Chain of Tryptophan--tRNA ligase (P9WFT3 whole entry): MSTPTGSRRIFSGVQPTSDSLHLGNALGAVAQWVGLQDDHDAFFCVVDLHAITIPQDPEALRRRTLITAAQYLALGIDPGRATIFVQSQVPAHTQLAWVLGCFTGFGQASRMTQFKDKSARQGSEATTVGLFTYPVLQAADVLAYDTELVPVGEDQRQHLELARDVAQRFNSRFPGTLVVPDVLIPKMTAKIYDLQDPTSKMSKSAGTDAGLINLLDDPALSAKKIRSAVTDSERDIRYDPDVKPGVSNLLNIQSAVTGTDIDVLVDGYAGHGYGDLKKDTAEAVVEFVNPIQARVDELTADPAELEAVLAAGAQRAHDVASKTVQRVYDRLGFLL
Chain of ClpP1P2 (P9WPC5 whole entry): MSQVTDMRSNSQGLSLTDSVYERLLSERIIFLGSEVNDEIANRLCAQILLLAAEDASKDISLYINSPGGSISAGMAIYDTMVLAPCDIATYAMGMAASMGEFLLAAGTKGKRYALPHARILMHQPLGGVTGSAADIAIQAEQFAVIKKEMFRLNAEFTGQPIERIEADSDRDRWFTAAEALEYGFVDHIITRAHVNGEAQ
Chain of ClpP1P2 (P9WPC3 whole entry): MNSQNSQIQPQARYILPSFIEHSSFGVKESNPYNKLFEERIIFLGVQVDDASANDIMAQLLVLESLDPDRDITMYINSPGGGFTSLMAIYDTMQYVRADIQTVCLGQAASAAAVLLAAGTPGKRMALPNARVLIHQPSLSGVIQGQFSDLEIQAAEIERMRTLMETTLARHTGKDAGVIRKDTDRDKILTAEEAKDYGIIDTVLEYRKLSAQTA

As to `Nc1n[nH]c(SCc2ccc3c(c2)OCCO3)n1`, the IC50 was above 501 µM in assay [1], above 501 µM in assay [2] and above 50.1 µM in assay [3].
In the case of `CNC(=O)c1cc2ccccc2n1C`, the IC50 on Tryptophan--tRNA ligase is above 195 µM.
Same read-out and setting: then `COc1ccc(C(=O)Nc2cccc(SC)c2)c(OC)n1`, with above 195 µM; and `CCCNc1ccc(C(=O)NCCc2cccc(OC)c2)cn1`, with above 195 µM.
The compound `O=C(NCCCn1ccnc1)c1cccnc1OCC(F)(F)F` gave an IC50 on Tryptophan--tRNA ligase above 195 µM.
Same read-out and setting: then `O=C(NCCc1ccncc1)c1cccnc1OCC(F)(F)F`, with above 195 µM; and `O=C(c1cccnc1Oc1ccc(Cl)cc1)N1CC[C@@H](O)C1`, with above 195 µM.
For `CO[C@H]1CN(c2ccccc2)S(=O)(=O)[C@@]12CCN(Cc1ccccc1)C2`, the IC50 on Tryptophan--tRNA ligase was above 195 µM.
On the same count and under the same terms, then `CC(O)CN1CCC(=O)N(Cc2ccccc2)Cc2ccccc21` (stereo not drawn), with above 195 µM.
As for `COCC(O)CN1CCC(=O)N(Cc2ccco2)Cc2ccccc21` (stereo not drawn), on Tryptophan--tRNA ligase, the IC50 was above 195 µM.
On the same count and under the same terms, to `CCCC(O)CN1CC(C)(C)CN(C(=O)CCc2ccccc2)CC1=O` (stereo not drawn) belongs above 195 µM; to `COc1ccccc1C(=O)N1CC(=O)N(CC2CC2)CC(O)C1` (stereo not drawn), above 195 µM.
On Tryptophan--tRNA ligase, `O=C1CN(C(=O)c2cccc(C(F)(F)F)c2)CC(O)CN1CC1CC1` (stereo not drawn) gave an IC50 above 195 µM.
Same read-out and setting: to `N#CCCN1CC(O)CN(C(=O)c2cccc(C(F)(F)F)c2)CC1=O` (stereo not drawn) belongs above 195 µM; to `O=C(C1CC1)N1CCN2C[C@@H](CO)[C@H](c3ccccc3)[C@H]2C1`, above 195 µM.
`COc1ccc2c3c1CN(C(C)=O)CC3=CC(C)(C)CO2` gave an IC50 against Tryptophan--tRNA ligase above 195 µM.
Take `CC(C)CC(=O)N1CC(=O)N(CCc2ccccc2)CC(O)C1` (stereo not drawn): the IC50 at Tryptophan--tRNA ligase is above 195 µM.
As for `CC(C)(C)OC(=O)N1CC(=O)N(CCc2ccccc2)CC(O)C1` (stereo not drawn), at Tryptophan--tRNA ligase, the IC50 was above 195 µM.
`CCS(=O)(=O)N1CC(=O)N(Cc2ccccc2OC)CC(O)C1` (stereo not drawn) gave an IC50 against Tryptophan--tRNA ligase above 195 µM.
Take `COc1cccc(CN2CC(O)CN(C(=O)C(C)(C)C)CC2=O)c1OC` (stereo not drawn): on Tryptophan--tRNA ligase, the IC50 is above 195 µM.
Same read-out and setting: then `CCCS(=O)(=O)N1CC(=O)N(Cc2cccc(OC)c2OC)CC(O)C1` (stereo not drawn), with above 195 µM; and `COc1ccccc1CN1CC(O)CN(S(=O)(=O)C(C)C)CC1=O` (stereo not drawn), with above 195 µM; and `COc1cccc(OC)c1CN1CC(O)CN(S(C)(=O)=O)CC1=O` (stereo not drawn), with above 195 µM.
Same read-out and setting: then `COC1CN(C(=O)CC2CCCC2)CCC(=O)N(C)c2ccccc21` (stereo not drawn), with above 195 µM.
As for `CNc1oc(-c2ccc(S(=O)(=O)N(C)C)o2)nc1C#N`, the results for the IC50 (in assay [3]; on ClpP1P2) were above 50.1 µM and above 100 µM, respectively.
`O=C(CC1CC1)N1CCC2(CC1)C(=O)NCCN2Cc1ccccc1` gave an IC50 against Tryptophan--tRNA ligase above 195 µM.
For the compound `COCCN(C)C(=O)c1nc2c(s1)CCCN2C`, on Tryptophan--tRNA ligase, the IC50 is above 195 µM.
Compound `CC(C)NC(=O)c1nc2c(s1)CCCN2C(C)C` showed an IC50 at Tryptophan--tRNA ligase above 195 µM.
Consider `O=C([C@H]1COC[C@H]2CN(c3ccncn3)C[C@H]21)N1CCCC1`, for which the IC50 at Tryptophan--tRNA ligase was above 195 µM.
On the same count and under the same terms, then `CO[C@H]1CC[C@H]2[C@H]1OCCN2C(=O)C1=CCCC1`, with above 195 µM; and `Cn1nc(C#N)c2c1CN(C(=O)c1ccco1)CCC2`, with above 195 µM; and `COCC1CC2(CCN(C(=O)c3ccc(F)c(Cl)c3)CC2)CO1` (stereo not drawn), with above 195 µM.
The compound `O=C(c1cnccn1)N1CCC2(CCCN(Cc3ccoc3)C2)C1` (stereo not drawn) showed an IC50 against Tryptophan--tRNA ligase above 195 µM.
For `O=C1NCC[C@]12CN(Cc1ccco1)C[C@H]2c1ccccc1`, the IC50 at Tryptophan--tRNA ligase was above 195 µM.
For the compound `O=S(=O)(NCC1(O)CCOc2ccccc21)c1ccc(Br)s1` (stereo not drawn), the IC50 in assay [3] was 7.49 µM. Besides, the “Percent Effect” value in the assay on Schistosoma mansoni is -11.19%.
`CCCNc1cc(-c2c[nH]nc2C2CCN(C(=O)C3CCC3)C2)ccn1` (stereo not drawn): in assay [3], the IC50 was 0.368 µM. In the assay with Plasmodium falciparum, this compound had a negative-log IC50 (pIC50) of 6.573 and an IC50 of 0.237 µM.
Consider `CC(C)Nc1cc(-c2c[nH]nc2C2CCN(C(=O)C3CC3)C2)ccn1` (stereo not drawn), for which the IC50 in assay [3] was 0.423 µM. In the assay with Plasmodium falciparum, this compound had a pIC50 of 6.541 and an IC50 of 0.269 µM.
Take `CC(C)CNc1cc(-c2c[nH]nc2C2CCN(C(=O)C3CC3)C2)ccn1` (stereo not drawn): in assay [3], the IC50 is 0.274 µM. In the assay on Plasmodium falciparum, this compound showed a pIC50 of 6.615 and an IC50 of 0.233 µM.
On to `CC(C)Nc1cc(-c2c[nH]nc2C2CCN(C(=O)C3CCC3)C2)ccn1` (stereo not drawn), for which, in assay [3], the IC50 is 0.526 µM. Besides, in the assay with Plasmodium falciparum, the pIC50 is recorded as 6.647 and the IC50 is 0.209 µM.
The matching figures for `CC(C)(C)c1cn2c(n1)C(CNCc1ccccn1)CCC2` (stereo not drawn): 2.04 µM, 6.014 and 0.881 µM.
In turn, `O=C(CN1CCCC(c2ccn[nH]2)C1)Nc1nc2c(s1)CCC2` (stereo not drawn) gave an IC50 in assay [3] of 0.766 µM. In the assay with Plasmodium falciparum, the negative logarithm of the IC50 (pIC50) is on record as 6.713 and the IC50 is 0.216 µM.
Consider `Cc1cc(C2CCCN(CC(=O)Nc3nc4c(s3)CCC4)C2)n[nH]1` (stereo not drawn), for which the IC50 in assay [1] is 47.2 µM; in assay [2], 37.8 µM; in assay [3], 0.781 µM; with Plasmodium falciparum it was 0.185 µM. Also, in the assay with Plasmodium falciparum, the negative logarithm of the IC50 (pIC50) is on record as 6.771.
Take `CCCn1ncc(-c2ccnc(NC3CC(C)(C)NC(C)(C)C3)n2)c1C`: the IC50 in assay [3] was 9.87 µM; with Plasmodium falciparum, 0.23 µM. The negative-log IC50 (pIC50) in the assay on Plasmodium falciparum is listed as 6.559.
For the compound `COc1ccc(-c2ccccc2CCN)c(OC)c1OC`, the IC50 in assay [1] was 25.1 µM; in assay [2], 43.4 µM; in assay [3] it was 3.52 µM; in the assay on Plasmodium falciparum it was 0.762 µM. Also, the pIC50 in the assay with Plasmodium falciparum is given as 6.053.
Consider `NCCC(=O)Nc1ccc(-c2ccccc2)cc1`, for which the IC50 against Tryptophan--tRNA ligase was above 195 µM.
In assay [3], `CCNCc1ccc(OCc2ccc3c(c2)OCCO3)cc1.Cl` gave a pIC50 of 4.872 and an IC50 of 8.2 µM. On ClpP1P2, the IC50 was above 100 µM.
On to `CCOC(=O)C1(Cc2ccccc2-c2ccccc2OC)CCNCC1.Cl`, for which the IC50 was 13.2 µM in assay [3] and 0.369 µM with Plasmodium falciparum. Besides, the pIC50 in the assay on Plasmodium falciparum amounted to 6.391.
For `Cc1ccc(C(CCNCCCN(C)C)C2CCOC(C)(C)C2)cc1.O=C(O)C(=O)O` (stereo not drawn), the pIC50 in assay [3] amounted to 5.301; in the assay on Plasmodium falciparum, 6.22. Besides, the IC50 in assay [3] is 5.38 µM; in the assay on Plasmodium falciparum it was 0.659 µM.
In turn, `CCOC1CC2(CCN(Cc3nccn3C)CC2)C1` showed an IC50 against Tryptophan--tRNA ligase above 195 µM.
Consider `Cc1noc([C@@H]2C[C@H]3CN(CC4CCOCC4)C[C@H]3O2)n1`, for which the IC50 against Tryptophan--tRNA ligase is above 195 µM.
On the same count and under the same terms, to `COCC1CC2(CCN(C(=O)c3cncc(C)c3)CC2)CO1` (stereo not drawn) belongs above 195 µM; to `c1cncc(CN2CCc3ncnc(C4CC4)c3CC2)c1`, above 195 µM.
In the case of `NCc1cccc(-c2ccccn2)n1`, the IC50 in assay [1] is 97.6 µM; in assay [2] it was 109 µM; in assay [3] it was 12.4 µM.
The matching figures for `C(Cc1noc(C2CNC2)n1)OCC1CC1`: 352 µM, 136 µM and 24.8 µM.
As to `NCCNC(=O)c1ccc(-c2ccc(Cl)cc2)s1`, the figures for the IC50 in assay [1], in assay [2] and in assay [3] were 103 µM, 67.3 µM and above 25.1 µM, respectively.
For `Brc1ccc(N2CCNCC2)nc1` the same measures were above 501 µM, 185 µM and above 50.1 µM.
The matching figures for `O=C(c1cc(C2CC2)n[nH]1)N1CCC2(CCCO2)CC1`: above 501 µM, above 501 µM and above 50.1 µM.
The matching figures for `OCCNCCNCc1ccc(-c2cccc(Cl)c2)o1`: 253 µM, 84.4 µM and above 25.1 µM.
`COc1ccc(CCN)c(OC)c1`: the IC50 in assay [1] is 91.2 µM; in assay [2], 46.8 µM; in assay [3], above 50.1 µM.
The matching figures for `Cn1nc2n(c1=O)CCN(Cc1ccc(Br)s1)CC2`: above 501 µM, 139 µM and above 50.1 µM.
For `NC(=O)CCc1ccc(Cl)s1` the same measures were 160 µM, above 501 µM and above 50.1 µM.
On to `CCCS(=O)(=O)NCC(O)C1CCCC1` (stereo not drawn), for which the IC50 in assay [1] is 268 µM; in assay [2], 294 µM; in assay [3], above 50.1 µM.
As to `CCOC(=O)C(O)c1cc(Br)c2c(c1)OCO2` (stereo not drawn), the IC50 in assay [1] was above 501 µM; in assay [2], 223 µM; in assay [3], above 50.1 µM.
The matching figures for `c1ccc(COCCc2noc(C3CNC3)n2)cc1`: 270 µM, 222 µM and 24.9 µM.
The matching figures for `CC(C)Sc1ccccc1NS(=O)(=O)N(C)C`: 252 µM, 173 µM and above 50.1 µM.
`COC(=O)c1[nH]cc(-c2ccccc2)c1N`: the IC50 in assay [1] is 172 µM; in assay [2], 196 µM; in assay [3] it was above 50.1 µM.
For `Cc1cccc(OCCc2noc(C3CNC3)n2)c1` the same measures were 163 µM, 89.2 µM and 8.49 µM.
The matching figures for `NCCC(=O)N1CCCC(CCc2ccc(F)cc2)C1` (stereo not drawn): 479 µM, 204 µM and above 50.1 µM.
Take `C1CCC(COCCc2noc(C3CNC3)n2)C1`: the IC50 in assay [1] is above 501 µM; in assay [2], 96.5 µM; in assay [3] it was 19.5 µM.
For `CCC(C#N)NC(=O)c1cnc(OC(C)C)c(Cl)c1` (stereo not drawn) the same measures were 291 µM, 131 µM and above 50.1 µM.
As to `CN(C)C(=O)Nc1cc(F)cc(F)c1`, the IC50 in assay [1] is 30.6 µM; in assay [2] it was 30.2 µM; in assay [3], 2.1 µM.
With `Cc1ccc(F)cc1S(=O)(=O)N1C[C@H](C2CC2)[C@@H](N)C1`, the IC50 is above 501 µM in assay [1], 259 µM in assay [2] and above 50.1 µM in assay [3].
For `COCCNc1nnc(SCc2ccc(Br)cn2)s1` the same measures were above 501 µM, 276 µM and above 50.1 µM.

Usually pIC50 stands for the negative decadic logarithm of the IC50, by convention in mol/L.

These data come from ChEMBL document CHEMBL3988442, “University of Dundee, Small-Polar-MMV Screening Library” (2021).
